Read-outs that look alike come from different tables or passages of the source.
Assays:
[1] = system: mixed cortical cell cultures containing neurons and glia; experiment: Fe2+-induced free radical neurotoxicity in mixed cortical cell cultures (LDH release); format: cell-based, mouse; conditions: 50 μM FeCl2, neuronal death 24 hr later (LDH), read-out: IC50 (50% protection against Fe^2+-induced free radical neurotoxicity)
Method: Mouse cortical cell cultures (DIV 11-15) were exposed to 50 μM Fe^2+ or 10 mM BSO, alone or with inclusion of 5 mM Li^+. Neuronal death was analyzed 24 hr later by measuring levels of LDH released into the bathing medium, mean±SEM (n=9-12 culture wells per condition).
Mouse cortical cell cultures (DIV 11-15) were exposed to 30 μM Fe^2+ or 10 mM BSO, alone or in the presence of 1 μM 2-hydroxy TTBA, 10-100 μM vitamin E, or 5 mM Li^+.
For mixed neuron-glia culture, mouse cerebral cortices were removed from brains of the 11-15 day-old-fetal mice (E11-15), gently triturated and plated on 24 well plates (2×10^5 cells/plate) precoated with 100 μg/ml poly-D-lysine and 4 pg/ml laminin. Cultures were maintained at 37° C. in a humidified 5% CO2 atmosphere.
After 7-8 days in vitro (DIV 7-8), 10 μM cytosine arabinofuranoside (Ara-C) was included to halt overgrowth of glia. The drug treatment was carried on DIV 11-15 cortical cell culture.
Oxidative stress was induced by exposing mixed cortical cell cultures containing neurons and glia (DIV 11-15) to 50 μM FeCl2, a hydroxyl radical-producing transition metal via a Fenton reaction, or 10 mM DL-buthionine-[S,R]-sulfoximine (BSO), a glutathione depleting agent.

cerebral cortical cell = experiment: anti-oxidant effect: neuron protecting effect against Fe+2 (50 uM FeCl2); format: cell-based; conditions: cerebral cortical cell treated by 50 uM FeCl2
Method: After cerebral cortical cell was treated by 50 uM FeCl2 to induce oxidative stress, the anti-oxidant effects of many compounds were evaluated. Results were shown as IC50 (uM) (Item A of Table 3 below).
(§1) In the Table 3, A, B and C mean neuron protecting effect against Fe^+2, suppressing effect on production of NO and suppressing effect on production of beta-amyloid, respectively. The term “ND” means “Not determined.”

beta-amyloid (Aβ42) = experiment: suppression of beta-amyloid (Aβ42) production in CHO cells (ELISA); format: cell-based, Chinese hamster
Method: The suppressing effects of many drug candidates on production of beta-amyloid were evaluated in CHO cell line having the increased level of beta-amyloid. Results were shown as IC50 (uM) (Item C of Table 3 below).
as §1
Cells were treated with increasing concentrations of various chemicals in Chinese hamster ovary (CHO) cells stably transfected with human wild APP695 and the PS1ΔExon9, and analyzed Aβ42 levels in culture medium by colorimetric sandwich ELISA kit (BIOSOURCE, Camarillo, Calif.). In CHO cells, IC50 of Chemical—01-08 on Aβ42 lowering effect was 20-100 uM (Table 4).

[2] = system: BV-2 cell line (production of NO); experiment: anti-inflammatory effect: suppression of LPS-induced production of NO; format: cell-based; conditions: BV-2 cell line treated by LPS; for IC50: read-out: IC50 (uM) B: suppressing effect on production of NO
Method: After BV-2 cell line was treated by LPS to induce production of NO, the anti-inflammatory effects of many compounds were evaluated. Results were shown as IC50 (uM) (Item B of Table 3 below).
as §1

[3] = CHO cell line having the increased level of beta-amyloid, read-out: IC50 (uM) C: suppressing effect on production of beta-amyloid
[4] = Cricetulus griseus, CHO cells stably transfected with human wild APP695 and PS1ΔExon9, culture medium, ELISA, read-out: Aβ42 lowering effect (IC50)
[5] = Cricetulus griseus, CHO cell line having the increased level of beta-amyloid, read-out: IC50 (uM) C: suppressing effect on production of beta-amyloid
[6] = CHO cell line having the increased level of beta-amyloid

IC50 (cerebral cortical cell; Neuron)	IC50 ([2]; Mus musculus)	Compound	also measured
–	–	O=C(O)c1cc(NCCCc2ccc([N+](=O)[O-])cc2)ccc1O [NPPAA, 5-[3-(4-nitrophenyl)-n-propyl]aminosalicylic acid]	IC50 ([1]; Mus musculus, Neuron): 0.2 µM
–	–	O=C(O)c1cc(NCCc2cc(C(F)(F)F)cc(C(F)(F)F)c2)ccc1O [Compound 27]	IC50 (cerebral cortical cell): 0.044 µM; IC50 (beta-amyloid (Aβ42); [3]): 109 µM; IC50 [2]: 6.25 µM
–	–	O=C(O)c1cc(NCCc2ccc(F)c(C(F)(F)F)c2)ccc1O [Compound 33]	IC50 (cerebral cortical cell): 0.036 µM; IC50 (beta-amyloid (Aβ42); [3]): > 100 µM; IC50 [2]: 31.1 µM
–	–	O=C(O)c1cc(NCc2ccc(F)cc2)ccc1O [FBAS]	IC50 [1]: 0.3 µM
0.29 µM	85.4 µM	O=C(O)c1cc(NCCCc2ccccc2)ccc1O [Compound 32]	–
–	–	O=C(O)c1cc(NCCc2ccc(OC(F)(F)F)cc2)ccc1O [chemical 16, 2-Hydroxy-5-[2-(4-trifluoromethoxy-phenyl)-ethylamino]-benzoic acid]	IC50 (beta-amyloid (Aβ42); [4]): 67.5 µM
–	–	O=C(O)c1cc(NCc2ccc(C(F)(F)F)cc2)ccc1O [TBAS]	IC50 [1]: 0.31 µM
0.27 µM	82.2 µM	O=C(O)c1cc(NCCc2cc(F)ccc2F)ccc1O [Compound 06]	–
0.031 µM	40.8 µM	O=C(O)c1cc(NCCc2ccc(Cl)cc2Cl)ccc1O [Compound 24]	IC50 (beta-amyloid (Aβ42); [5]): 29.2 µM
–	–	COc1ccc(CNc2ccc(O)c(C(=O)O)c2)cc1 [MBAS, 5-(4-methoxybenzyl)aminosalicylic acid]	IC50 ([1]; Mus musculus, Neuron): 1.42 µM
0.25 µM	4.08 µM	O=C(O)c1cc(NCCc2ccc(F)cc2C(F)(F)F)ccc1O [Compound 31]	–
0.1 µM	20.7 µM	O=C(O)c1cc(NCCc2ccc(C(F)(F)F)c(F)c2)ccc1O [Compound 45]	–
0.12 µM	51 µM	O=C(O)c1cc(NCCCc2ccc(Cl)cc2Cl)ccc1O [Compound 44]	–
–	–	Cc1c(C)c2c(c(C)c1O)CCC(C)(C(=O)O)O2 (centres unmarked) [Trolox, reference compound]	IC50 ([1]; Mus musculus, Neuron): 3.34 µM
0.04 µM	51.8 µM	O=C(O)c1cc(NCCCc2ccc(Cl)c(Cl)c2)ccc1O [Compound 43]	IC50 (beta-amyloid (Aβ42); [5]): 111 µM
0.26 µM	82.6 µM	O=C(O)c1cc(NCCc2cccc(F)c2)ccc1O [Compound 19]	–
0.1 µM	33 µM	O=C(O)c1cc(NCCc2ccccc2C(F)(F)F)ccc1O [Compound 03]	–
0.24 µM	23.9 µM	Cc1ccc(CCNc2ccc(O)c(C(=O)O)c2)cc1 [Compound 11]	–
0.18 µM	42.2 µM	CCOc1ccc(CCNc2ccc(O)c(C(=O)O)c2)cc1 [Compound 29]	–
0.11 µM	> 100 µM	O=C(O)c1cc(NCCc2ccc(Cl)cc2)ccc1O [Compound 14]	–
0.06 µM	99.8 µM	O=C(O)c1cc(NCCc2ccc(C(F)(F)F)cc2F)ccc1O [Compound 36]	IC50 (beta-amyloid (Aβ42); [5]): > 100 µM
0.32 µM	–	COc1cccc(CCNc2ccc(O)c(C(=O)O)c2)c1 [Compound 15]	IC50 (uM) B: suppressing effect on production of NO [2]: No
0.07 µM	18.6 µM	Cc1ccccc1CCNc1ccc(O)c(C(=O)O)c1 [Compound 25]	IC50 (uM) C: suppressing effect on production of beta-amyloid (beta-amyloid (Aβ42); [6]): No
–	–	O=C(O)c1cc(NCCc2ccc(Cl)cc2Cl)ccc1O [chemical 24, 5-[2-(2,4-Dichloro-phenyl)-ethylamino]-2-hydroxy-benzoic acid]	IC50 (beta-amyloid (Aβ42); [4]): 29.2 µM
0.073 µM	> 100 µM	O=C(O)c1cc(NCCCCc2ccccc2)ccc1O [Compound 40]	IC50 (uM) C: suppressing effect on production of beta-amyloid (beta-amyloid (Aβ42); [6]): No
0.27 µM	> 100 µM	O=C(O)c1cc(NCCc2cc(F)ccc2C(F)(F)F)ccc1O [Compound 37]	–

IC50 (cerebral cortical cell; Neuron)	IC50 ([2]; Mus musculus)	Compound	also measured
0.25 µM	135 µM	O=C(O)c1cc(NCCc2cc(F)cc(F)c2)ccc1O [Compound 22]	–
0.39 µM	23.6 µM	Cc1cccc(CCNc2ccc(O)c(C(=O)O)c2)c1 [Compound 30]	IC50 (uM) C: suppressing effect on production of beta-amyloid (beta-amyloid (Aβ42); [6]): No
0.14 µM	78.8 µM	O=C(O)c1cc(NCCc2ccccc2Br)ccc1O [Compound 09]	–
0.11 µM	26.5 µM	Cc1ccc(CCCNc2ccc(O)c(C(=O)O)c2)cc1 [Compound 41]	IC50 (uM) C: suppressing effect on production of beta-amyloid (beta-amyloid (Aβ42); [6]): No
–	–	O=C(O)c1cc(NCCc2ccc(O)cc2)ccc1O [Compound 47]	IC50 (cerebral cortical cell): 0.32 µM; IC50 [2]: 11.5 µM
0.13 µM	61.7 µM	O=C(O)c1cc(NCCc2cccc(C(F)(F)F)c2F)ccc1O [Compound 26]	IC50 (beta-amyloid (Aβ42); [5]): > 100 µM
0.13 µM	98.8 µM	O=C(O)c1cc(NCCc2cc(F)cc(C(F)(F)F)c2)ccc1O [Compound 34]	IC50 (uM) C: suppressing effect on production of beta-amyloid (beta-amyloid (Aβ42); [6]): No
0.32 µM	23.7 µM	O=C(O)c1cc(NCCc2ccc(F)c(F)c2)ccc1O [Compound 21]	IC50 (beta-amyloid (Aβ42); [5]): 68 µM
0.23 µM	76.5 µM	O=C(O)c1cc(NCCc2cccc(Cl)c2)ccc1O [Compound 08]	–
0.035 µM	67.5 µM	O=C(O)c1cc(NCCCc2ccc(F)c(F)c2)ccc1O [Compound 35]	IC50 (beta-amyloid (Aβ42); [5]): > 100 µM
0.4 µM	12.5 µM	O=C(O)c1cc(NCCc2ccccc2[N+](=O)[O-])ccc1O [Compound 20]	–
0.36 µM	62.7 µM	O=C(O)c1cc(NCCc2c(F)cccc2F)ccc1O [Compound 12]	–
0.11 µM	60.8 µM	O=C(O)c1cc(NCCc2ccccc2Cl)ccc1O [Compound 07]	IC50 (beta-amyloid (Aβ42); [5]): 19.1 µM
0.069 µM	35 µM	O=C(O)c1cc(NCCc2cc(C(F)(F)F)ccc2F)ccc1O [Compound 38]	IC50 (uM) C: suppressing effect on production of beta-amyloid (beta-amyloid (Aβ42); [6]): No
0.12 µM	20.3 µM	O=C(O)c1cc(NCCCc2ccc(F)cc2)ccc1O [Compound 28]	–
0.21 µM	> 300 µM	O=C(O)c1cc(NCCc2ccc(F)cc2F)ccc1O [Compound 17]	–
0.11 µM	60.3 µM	COc1ccc(CCNc2ccc(O)c(C(=O)O)c2)cc1 [Compound 05]	–
0.31 µM	–	O=C(O)c1cc(NCCc2ccc(F)cc2)ccc1O [Compound 39]	IC50 (uM) B: suppressing effect on production of NO [2]: No
0.11 µM	34.9 µM	O=C(O)c1cc(NCCc2ccccc2F)ccc1O [Compound 23]	–
1.04 µM	> 100 µM	O=C(O)c1cc(NCCc2ccccc2)ccc1O [Compound 02]	–
0.27 µM	94 µM	COc1ccccc1CCNc1ccc(O)c(C(=O)O)c1 [Compound 13]	–
–	–	O=C(O)c1cc(NCCCc2ccc(Cl)c(Cl)c2)ccc1O [chemical 43, 5-[3-(3,4-Dichloro-phenyl)-propylamino]-2-hydroxy-benzoic acid]	IC50 (beta-amyloid (Aβ42); [4]): 111 µM
0.1 µM	63.2 µM	O=C(O)c1cc(NCCc2ccc(Cl)c(Cl)c2)ccc1O [Compound 18]	–
–	–	O=C(O)c1cc(NCCc2ccc(F)c(F)c2)ccc1O [chemical 21, 5-[2-(3,4-Difluoro-phenyl)-ethylamino]-2-hydroxy-benzoic acid]	IC50 (beta-amyloid (Aβ42); [4]): 68 µM
0.23 µM	–	O=C(O)c1cc(NCCc2cccc(Br)c2)ccc1O [Compound 10]	IC50 (uM) B: suppressing effect on production of NO [2]: No

Compound	IC50 (cerebral cortical cell; Neuron)	IC50 ([2]; Mus musculus)	also measured
O=C(O)c1cc(NCCc2cccc(C(F)(F)F)c2)ccc1O [Compound 04]	0.08 µM	26.1 µM	–
O=C(O)c1cc(NCCCc2ccc(C(F)(F)F)cc2)ccc1O [Compound 42]	0.062 µM	6.7 µM	IC50 (beta-amyloid (Aβ42); [5]): 68.3 µM
O=C(O)c1cc(NCCc2ccc(C(F)(F)F)cc2)ccc1O [Compound 01]	0.099 µM	24.3 µM	IC50 (beta-amyloid (Aβ42); [5]): 19.6 µM
